How the values were obtained:
mouse [1] = conditions: Subchronic oral toxicity in rodents, b6c3f1, Gavage/Intubation, dose end: 6 month, group: systemic
mouse [2] = conditions: Multigenerational reproductive toxicity study, other, Oral, Gavage/Intubation, dose end: 21 PND
rat [3] = conditions: Multigenerational reproductive toxicity study, sprague dawley, Oral, Gavage/Intubation, dose end: 2 generation
rat [4] = conditions: Combined chronic toxicity/carcinogenicity; fischer; Oral; Gavage/Intubation; dose end: 2 year; group: systemic; systemic / in life observation / body weight / body weight + systemic / pathology microscopic / kidney / nephropathy + systemic / pathology …
mouse [5] = conditions: Combined chronic toxicity/carcinogenicity, b6c3f1, Oral, Gavage/Intubation, dose end: 2 year, group: systemic
rat [6] = conditions: Subchronic oral toxicity in rodents, fischer, Gavage/Intubation, dose end: 6 month, group: systemic
rat [7] = conditions: Fertility (Segment I), sprague dawley, Oral, Gavage/Intubation, dose end: 0 mating
rat [8] = conditions: Subchronic oral toxicity in rodents, wistar, Water, dose end: 90 day
rat [9] = conditions: Carcinogenicity; fischer; Oral; Feed; dose end: 103 week; group: systemic; systemic / in life observation / clinical signs / muscle fasciculation + systemic / in life observation / clinical signs / skeletal muscle …
rat [10] = conditions: Sub-acute repeat dose toxicity, fischer, Oral, Feed, dose end: 14 day, group: systemic
mouse [11] = conditions: Subchronic oral toxicity in rodents, b6c3f1, Feed, dose end: 13 week, group: systemic
mouse [12] = conditions: Carcinogenicity; b6c3f1; Oral; Feed; dose end: 103 week; group: systemic; systemic / in life observation / clinical signs / [other] + systemic / pathology microscopic / ovary / atrophy + systemic / pathology …
rat [13] = conditions: Subchronic oral toxicity in rodents, fischer, Feed, dose end: 13 week, group: systemic
mouse [14] = conditions: Prenatal developmental toxicity study, cd1, Oral, Feed, dose end: 15 GD
rabbit = conditions: Prenatal developmental toxicity study, new zealand white, Oral, Gavage/Intubation, dose end: 19 GD
mouse [15] = conditions: Sub-acute repeat dose toxicity, b6c3f1, Oral, Feed, dose end: 14 day, group: systemic
mouse [16] = conditions: Multigenerational reproductive toxicity study, cd1, Oral, Feed, dose end: 2 generation
[17] = systemic / pathology microscopic / kidney / vacuolization cytoplasmic + systemic / in life observation / body weight / body weight + …
[18] = group: offspring, developmental / offspring survival late / viability index / viability index
[19] = group: parental, systemic / organ weight / kidney / relative to body weight
[20] = group: parental, systemic / organ weight / kidney / relative to body weight + systemic / in life observation / body weight / body weight
[21] = group: reproductive, reproductive / reproductive performance / fertility / fertility
[22] = group: reproductive, reproductive / reproductive performance / fertility / fertility + reproductive / offspring survival early / live fetuses / live fetuses
[23] = group: offspring, developmental / offspring survival late / viability index / viability index + systemic / in life observation / body weight / offspring (pup…
[24] = group: offspring, systemic / in life observation / body weight / offspring (pup) weight + systemic / organ weight / liver / absolute + systemic / organ weight…
[25] = group: parental, systemic / in life observation / body weight / body weight + systemic / in life observation / mortality / mortality + systemic / organ …
[26] = group: parental, systemic / in life observation / mortality / mortality + systemic / organ weight / kidney / absolute + systemic / organ weight / kidney / …
[27] = group: reproductive, reproductive / reproductive performance / fertility / fertility + reproductive / offspring survival early / litter size / litter size + …
[28] = group: reproductive, reproductive / reproductive performance / fertility / fertility + reproductive / reproductive performance / implantations / implantations + …
[29] = systemic / pathology microscopic / kidney / nephropathy + systemic / pathology microscopic / kidney / vacuolization cytoplasmic
[30] = systemic / pathology microscopic / kidney / nephropathy + systemic / pathology microscopic / kidney / vacuolization cytoplasmic + systemic…
[31] = systemic / in life observation / body weight / body weight + systemic / clinical chemistry / alanine aminotransferase (alt/sgpt) / alanine …
[32] = group: maternal, reproductive / reproductive performance / implantations / implantations
[33] = group: parental, systemic / clinical chemistry / luteinizing hormone (lh) / luteinizing hormone (lh) + systemic / clinical chemistry / progesterone / …
[34] = group: parental, systemic / in life observation / body weight / body weight gain
[35] = group: maternal, reproductive / reproductive performance / fertility / fertility + reproductive / reproductive performance / mating / mating
[36] = group: systemic, systemic / organ weight / epididymis / absolute + systemic / organ weight / prostate / absolute + systemic / organ weight / seminal vesicle…
[37] = group: systemic, systemic / pathology gross / sperm measure / sperm count + systemic / pathology gross / sperm measure / sperm motility
[38] = systemic / in life observation / body weight / body weight gain + systemic / in life observation / clinical signs / [other] + systemic / in …
[39] = systemic / in life observation / clinical signs / lethargy + systemic / in life observation / clinical signs / fur (altered appearance) + …
[40] = systemic / in life observation / body weight / body weight + systemic / in life observation / body weight / body weight gain + systemic / in…
[41] = group: developmental, systemic / in life observation / body weight / fetal weight
[42] = group: maternal, reproductive / offspring survival early / dead fetuses / dead fetuses
[43] = group: developmental, developmental / developmental malformation / general / [other]
[44] = group: maternal, reproductive / reproductive performance / resorptions / resorptions + systemic / in life observation / body weight / body weight + systemic…
[45] = systemic / in life observation / clinical signs / [other]
[46] = systemic / in life observation / clinical signs / [other] + systemic / in life observation / clinical signs / fur (altered appearance) + …
[47] = group: offspring, systemic / in life observation / clinical signs / cannibalism
[48] = group: offspring, systemic / in life observation / clinical signs / cannibalism + developmental / offspring survival late / [other] / [other] + systemic / in …
[49] = group: parental, systemic / in life observation / body weight / body weight + systemic / in life observation / clinical signs / cannibalism + systemic / in …
[50] = group: parental, systemic / in life observation / food consumption / food consumption + systemic / in life observation / water consumption / water …
[51] = group: reproductive, reproductive / offspring survival early / birth index / birth index + reproductive / reproductive performance / dystocia / dystocia + …
[52] = group: reproductive, reproductive / reproductive performance / estrous cycle / abnormal

## [Cl][Hg][Cl] [Mercuric chloride]
Mouse [1]; systemic / pathology microscopic / kidney / vacuolization cytoplasmic
  LOAEL: 10 mg/kg/day
Mouse [1]; [17]
  NEL: 2.5 mg/kg/day
  NOAEL: 5 mg/kg/day
Mouse [1]; systemic / pathology microscopic / kidney / vacuolization cytoplasmic + systemic / organ weight / kidney / absolute
  LEL: 5 mg/kg/day
Mouse [2]; [18]
  LEL: 1 mg/kg/day
  LOAEL: > 1 mg/kg/day
  NEL: 0.5 mg/kg/day
  NOAEL: ≥ 1 mg/kg/day
Mouse [2]; [19]
  LEL: 0.25 mg/kg/day
  NEL: < 0.25 mg/kg/day
Mouse [2]; [20]
  LOAEL: > 1 mg/kg/day
  NOAEL: ≥ 1 mg/kg/day
Mouse [2]; [21]
  LEL: 0.25 mg/kg/day
  NEL: < 0.25 mg/kg/day
Mouse [2]; [22]
  LOAEL: > 1 mg/kg/day
  NOAEL: ≥ 1 mg/kg/day
Rat [3]; [23]
  LOAEL: > 2.5 mg/kg/day
  NOAEL: ≥ 2.5 mg/kg/day
Rat [3]; [24]
  LEL: 0.5 mg/kg/day
  NEL: < 0.5 mg/kg/day
Rat [3]; [25]
  LOAEL: > 2.5 mg/kg/day
  NOAEL: ≥ 2.5 mg/kg/day
Rat [3]; [26]
  LEL: 0.5 mg/kg/day
  NEL: < 0.5 mg/kg/day
Rat [3]; [27]
  LEL: 0.5 mg/kg/day
  NEL: < 0.5 mg/kg/day
Rat [3]; [28]
  LOAEL: > 2.5 mg/kg/day
  NOAEL: ≥ 2.5 mg/kg/day
Rat [4]
  LEL: 2.5 mg/kg/day
  LOAEL: 2.5 mg/kg/day
  NEL: < 2.5 mg/kg/day
  NOAEL: < 2.5 mg/kg/day
Mouse [5]; [29]
  LOAEL: 5 mg/kg/day
  NOAEL: < 5 mg/kg/day
Mouse [5]; [30]
  LEL: 5 mg/kg/day
  NEL: < 5 mg/kg/day
Rat [6]; [31]
  LEL: 0.312 mg/kg/day
  NEL: < 0.312 mg/kg/day
Rat [6]; systemic / in life observation / body weight / body weight + systemic / pathology microscopic / kidney / nephropathy + systemic / organ …
  NOAEL: 2.5 mg/kg/day
Rat [6]; systemic / pathology microscopic / kidney / nephropathy
  LOAEL: 5 mg/kg/day
Rat [7]; [32]
  LEL: 2 mg/kg/day
  LOAEL: > 2 mg/kg/day
  NEL: 1 mg/kg/day
  NOAEL: ≥ 2 mg/kg/day
Rat [7]; [33]
  LOAEL: > 2 mg/kg/day
  NOAEL: ≥ 2 mg/kg/day
Rat [7]; [34]
  LEL: 1 mg/kg/day
  NEL: < 1 mg/kg/day
Rat [8]; [35]
  LEL: 5 mg/kg/day
  LOAEL: > 5 mg/kg/day
  NEL: 2.5 mg/kg/day
  NOAEL: ≥ 5 mg/kg/day
Rat [8]; [36]
  LOAEL: > 5 mg/kg/day
  NOAEL: ≥ 5 mg/kg/day
Rat [8]; [37]
  LEL: 2.5 mg/kg/day
  NEL: < 2.5 mg/kg/day

## NC(=O)N/N=C/c1ccc([N+](=O)[O-])o1 [Nitrofurazone]
Rat [9]
  LEL: 11 mg/kg/day
  LOAEL: 11 mg/kg/day
  NEL: < 11 mg/kg/day
  NOAEL: < 11 mg/kg/day
Rat [10]; [38]
  LOAEL: 125 mg/kg/day
  NOAEL: 62.5 mg/kg/day
Rat [10]; [39]
  LEL: 31.5 mg/kg/day
  NEL: < 31.5 mg/kg/day
Mouse [11]; [40]
  LOAEL: > 188 mg/kg/day
  NEL: 46.5 mg/kg/day
  NOAEL: ≥ 188 mg/kg/day
Mouse [11]; systemic / in life observation / clinical signs / [other] + systemic / in life observation / clinical signs / excitation + systemic / in …
  LEL: 93 mg/kg/day
Mouse [12]
  LEL: 14 mg/kg/day
  LOAEL: 14 mg/kg/day
  NEL: < 14 mg/kg/day
  NOAEL: < 14 mg/kg/day
Rat [13]; systemic / organ weight / liver / relative to body weight + systemic / in life observation / body weight / body weight + systemic / in life …
  NEL: 7.5 mg/kg/day
Rat [13]; systemic / pathology microscopic / testes / degeneration
  LOAEL: 15.5 mg/kg/day
Rat [13]; systemic / pathology microscopic / testes / degeneration + systemic / in life observation / body weight / body weight + systemic / in life …
  NOAEL: 7.5 mg/kg/day
Rat [13]; systemic / pathology microscopic / testes / degeneration + systemic / organ weight / liver / relative to body weight
  LEL: 15.5 mg/kg/day
Mouse [14]; [41]
  LEL: 81.7 mg/kg/day
  LOAEL: > 81.7 mg/kg/day
  NEL: 41.2 mg/kg/day
  NOAEL: ≥ 81.7 mg/kg/day
Mouse [14]; [42]
  LEL: 41.2 mg/kg/day
  LOAEL: 41.2 mg/kg/day
  NEL: 13.6 mg/kg/day
  NOAEL: 13.6 mg/kg/day
rabbit; [43]
  LEL: 20 mg/kg/day
  LOAEL: 20 mg/kg/day
  NEL: 15 mg/kg/day
  NOAEL: 15 mg/kg/day
rabbit; group: maternal, reproductive / reproductive performance / resorptions / resorptions
  LOAEL: 20 mg/kg/day
rabbit; [44]
  NEL: 5 mg/kg/day
  NOAEL: 15 mg/kg/day
rabbit; group: maternal, systemic / in life observation / body weight / body weight
  LEL: 10 mg/kg/day
Mouse [15]; [45]
  LOAEL: 94.5 mg/kg/day
  NOAEL: < 94.5 mg/kg/day
Mouse [15]; [46]
  LEL: 94.5 mg/kg/day
  NEL: < 94.5 mg/kg/day
Mouse [16]; [47]
  LEL: 15 mg/kg/day
  NEL: < 15 mg/kg/day
Mouse [16]; [48]
  LOAEL: > 112 mg/kg/day
  NOAEL: ≥ 112 mg/kg/day
Mouse [16]; [49]
  LOAEL: > 112 mg/kg/day
  NOAEL: ≥ 112 mg/kg/day
Mouse [16]; [50]
  LEL: 15 mg/kg/day
  NEL: < 15 mg/kg/day
Mouse [16]; [51]
  LOAEL: > 112 mg/kg/day
  NOAEL: ≥ 112 mg/kg/day
Mouse [16]; [52]
  LEL: 15 mg/kg/day
  NEL: < 15 mg/kg/day

— EPA's ToxRefDB 2
